Test results: ChEMBL document CHEMBL2417377, “Hit-to-lead optimization and kinase selectivity of imidazo[1,2-a]quinoxalin-4-amine derived JNK1 inhibitors” (Bioorg Med Chem Lett, 2013)
One block for each compound: values may come before it.

Tests used:
[1] = molecular target: T1, Mitogen-activated protein kinase kinase kinase 2 (Homo sapiens) (UniProt Q9Y2U5); test: Inhibition of MAP3K2 in human PC3 cell lysates at 10 uM using desthiobiotin-tagged ATP probe AX9989 followed by trypsinization by LC/MS analysis; details: PC-3
T1 sequence (whole entry): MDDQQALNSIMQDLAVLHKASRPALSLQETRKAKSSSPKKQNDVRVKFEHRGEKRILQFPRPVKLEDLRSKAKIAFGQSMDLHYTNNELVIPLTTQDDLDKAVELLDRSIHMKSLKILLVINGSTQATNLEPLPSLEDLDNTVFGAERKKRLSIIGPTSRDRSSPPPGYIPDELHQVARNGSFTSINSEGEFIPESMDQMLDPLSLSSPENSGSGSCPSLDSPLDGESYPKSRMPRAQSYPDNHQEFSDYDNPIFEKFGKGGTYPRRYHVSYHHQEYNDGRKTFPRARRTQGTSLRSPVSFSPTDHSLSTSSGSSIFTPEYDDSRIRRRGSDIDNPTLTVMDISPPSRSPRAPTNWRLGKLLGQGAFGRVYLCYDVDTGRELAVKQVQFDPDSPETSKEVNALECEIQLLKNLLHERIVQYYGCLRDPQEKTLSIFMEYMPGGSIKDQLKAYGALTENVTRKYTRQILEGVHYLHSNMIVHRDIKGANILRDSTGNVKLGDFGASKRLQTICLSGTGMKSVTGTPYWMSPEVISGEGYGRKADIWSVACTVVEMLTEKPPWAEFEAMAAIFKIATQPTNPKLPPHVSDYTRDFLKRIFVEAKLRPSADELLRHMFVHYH

[2] = tested on: PC-3; test: Inhibition of KHS1 in human PC3 cell lysates at 10 uM using desthiobiotin-tagged ATP probe AX9989 followed by trypsinization by LC/MS analysis; type: cell-free
[3] = molecular target: T2, Acylglycerol kinase, mitochondrial (Homo sapiens) (UniProt Q53H12); test: Inhibition of AGK in human PC3 cell lysates at 10 uM using desthiobiotin-tagged ATP probe AX9989 followed by trypsinization by LC/MS analysis; details: PC-3
T2 sequence (whole entry): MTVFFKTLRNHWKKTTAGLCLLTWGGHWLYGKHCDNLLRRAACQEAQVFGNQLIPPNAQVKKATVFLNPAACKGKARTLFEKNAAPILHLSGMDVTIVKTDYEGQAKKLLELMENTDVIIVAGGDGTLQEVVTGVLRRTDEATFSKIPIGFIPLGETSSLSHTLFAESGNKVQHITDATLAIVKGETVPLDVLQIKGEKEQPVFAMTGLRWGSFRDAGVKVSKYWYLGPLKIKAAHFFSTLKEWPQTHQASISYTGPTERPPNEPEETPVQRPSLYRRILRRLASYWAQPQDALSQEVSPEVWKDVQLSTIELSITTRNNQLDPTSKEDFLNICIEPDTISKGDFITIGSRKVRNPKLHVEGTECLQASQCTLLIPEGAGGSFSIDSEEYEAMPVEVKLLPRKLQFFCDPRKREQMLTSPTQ

[4] = molecular target: T3, EKC/KEOPS complex subunit TP53RK (Homo sapiens) (UniProt Q96S44); test: Inhibition of PRPK in human PC3 cell lysates at 10 uM using desthiobiotin-tagged ATP probe AX9989 followed by trypsinization by LC/MS analysis; details: PC-3
T3 sequence (whole entry): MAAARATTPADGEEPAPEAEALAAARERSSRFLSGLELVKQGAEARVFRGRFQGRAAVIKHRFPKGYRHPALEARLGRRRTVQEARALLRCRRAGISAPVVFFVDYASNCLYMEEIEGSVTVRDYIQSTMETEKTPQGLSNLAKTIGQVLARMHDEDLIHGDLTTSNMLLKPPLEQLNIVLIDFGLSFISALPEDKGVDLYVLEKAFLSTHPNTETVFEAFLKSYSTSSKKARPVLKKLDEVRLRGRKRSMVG

[5] = molecular target: SRSF protein kinase 1 (Homo sapiens) (UniProt Q96SB4); test: Inhibition of SRPK1 in human PC3 cell lysates at 10 uM using desthiobiotin-tagged ATP probe AX9989 followed by trypsinization by LC/MS analysis; details: PC-3
Sequence of SRSF protein kinase 1 (Homo sapiens) (Q96SB4 whole entry): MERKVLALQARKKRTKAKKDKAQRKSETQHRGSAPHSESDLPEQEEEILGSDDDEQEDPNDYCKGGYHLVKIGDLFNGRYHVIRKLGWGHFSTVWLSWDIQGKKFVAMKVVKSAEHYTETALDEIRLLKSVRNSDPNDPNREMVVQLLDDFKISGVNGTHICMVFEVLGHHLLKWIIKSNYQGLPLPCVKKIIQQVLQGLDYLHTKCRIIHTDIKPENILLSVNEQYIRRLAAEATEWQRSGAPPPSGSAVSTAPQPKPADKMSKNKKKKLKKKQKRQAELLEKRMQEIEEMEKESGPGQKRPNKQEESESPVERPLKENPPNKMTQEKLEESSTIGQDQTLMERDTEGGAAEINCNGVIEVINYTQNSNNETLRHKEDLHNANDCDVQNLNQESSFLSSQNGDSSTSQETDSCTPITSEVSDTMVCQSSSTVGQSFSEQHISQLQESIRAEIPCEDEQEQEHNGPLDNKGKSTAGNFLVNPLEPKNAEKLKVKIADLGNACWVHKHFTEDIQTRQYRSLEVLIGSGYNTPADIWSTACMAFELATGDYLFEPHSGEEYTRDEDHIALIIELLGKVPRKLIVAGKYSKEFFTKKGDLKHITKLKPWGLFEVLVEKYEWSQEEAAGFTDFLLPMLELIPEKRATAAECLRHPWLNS

[6] = molecular target: Cyclin-dependent kinase 9 (Homo sapiens) (UniProt P50750); test: Inhibition of CDK9 in human PC3 cell lysates at 10 uM using desthiobiotin-tagged ATP probe AX9989 followed by trypsinization by LC/MS analysis; details: PC-3
Sequence of Cyclin-dependent kinase 9 (Homo sapiens) (P50750 whole entry): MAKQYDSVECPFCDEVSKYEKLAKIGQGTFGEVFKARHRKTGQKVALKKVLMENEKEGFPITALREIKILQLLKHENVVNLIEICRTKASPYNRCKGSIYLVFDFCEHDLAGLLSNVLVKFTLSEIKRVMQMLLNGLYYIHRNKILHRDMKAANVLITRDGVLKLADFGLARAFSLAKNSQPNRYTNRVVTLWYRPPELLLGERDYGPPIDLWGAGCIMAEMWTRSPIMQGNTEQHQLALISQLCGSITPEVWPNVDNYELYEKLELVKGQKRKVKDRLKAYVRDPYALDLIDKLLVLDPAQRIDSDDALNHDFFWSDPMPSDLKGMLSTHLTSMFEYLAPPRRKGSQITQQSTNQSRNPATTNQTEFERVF

[7] = molecular target: Mitogen-activated protein kinase 14 (Homo sapiens) (UniProt Q16539); test: Inhibition of p38alpha in human PC3 cell lysates at 10 uM using desthiobiotin-tagged ATP probe AX9989 followed by trypsinization by LC/MS analysis; details: PC-3
Sequence of Mitogen-activated protein kinase 14 (Homo sapiens) (Q16539 whole entry): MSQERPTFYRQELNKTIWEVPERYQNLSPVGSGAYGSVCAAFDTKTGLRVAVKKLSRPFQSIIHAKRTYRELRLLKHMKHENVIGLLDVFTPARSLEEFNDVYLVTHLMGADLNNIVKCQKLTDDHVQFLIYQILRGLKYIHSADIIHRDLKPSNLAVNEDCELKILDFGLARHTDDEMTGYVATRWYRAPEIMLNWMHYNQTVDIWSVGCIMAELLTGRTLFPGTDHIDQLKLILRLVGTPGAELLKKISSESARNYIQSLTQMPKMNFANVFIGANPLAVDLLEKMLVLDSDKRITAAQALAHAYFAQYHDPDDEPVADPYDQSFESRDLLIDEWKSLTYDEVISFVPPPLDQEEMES

[8] = molecular target: T4, Serine/threonine-protein kinase Nek8 (Homo sapiens) (UniProt Q86SG6); test: Inhibition of NEK8 in human PC3 cell lysates at 10 uM using desthiobiotin-tagged ATP probe AX9989 followed by trypsinization by LC/MS analysis; details: PC-3
T4 sequence (whole entry): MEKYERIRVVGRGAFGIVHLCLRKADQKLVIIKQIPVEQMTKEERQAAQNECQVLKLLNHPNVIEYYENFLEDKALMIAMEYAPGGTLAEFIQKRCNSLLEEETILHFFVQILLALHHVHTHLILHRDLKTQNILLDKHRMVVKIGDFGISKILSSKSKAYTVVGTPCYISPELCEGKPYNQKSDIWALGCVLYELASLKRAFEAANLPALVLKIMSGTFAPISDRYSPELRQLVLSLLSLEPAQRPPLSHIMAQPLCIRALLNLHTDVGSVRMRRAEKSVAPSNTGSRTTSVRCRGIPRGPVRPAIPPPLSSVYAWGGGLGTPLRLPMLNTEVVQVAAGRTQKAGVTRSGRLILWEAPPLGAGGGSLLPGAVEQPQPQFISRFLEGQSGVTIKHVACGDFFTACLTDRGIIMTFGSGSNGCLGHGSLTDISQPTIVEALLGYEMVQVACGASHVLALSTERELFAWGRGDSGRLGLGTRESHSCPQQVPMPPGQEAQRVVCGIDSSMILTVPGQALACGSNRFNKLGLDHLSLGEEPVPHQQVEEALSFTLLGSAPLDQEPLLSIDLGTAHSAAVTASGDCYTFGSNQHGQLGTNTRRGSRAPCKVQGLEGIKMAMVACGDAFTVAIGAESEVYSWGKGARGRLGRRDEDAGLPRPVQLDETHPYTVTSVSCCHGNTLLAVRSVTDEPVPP

[9] = molecular target: Serine/threonine-protein kinase 38-like (Homo sapiens) (UniProt Q9Y2H1); test: Inhibition of NDR2 in human PC3 cell lysates at 10 uM using desthiobiotin-tagged ATP probe AX9989 followed by trypsinization by LC/MS analysis; details: PC-3
Sequence of Serine/threonine-protein kinase 38-like (Homo sapiens) (Q9Y2H1 2-464 limits assumed): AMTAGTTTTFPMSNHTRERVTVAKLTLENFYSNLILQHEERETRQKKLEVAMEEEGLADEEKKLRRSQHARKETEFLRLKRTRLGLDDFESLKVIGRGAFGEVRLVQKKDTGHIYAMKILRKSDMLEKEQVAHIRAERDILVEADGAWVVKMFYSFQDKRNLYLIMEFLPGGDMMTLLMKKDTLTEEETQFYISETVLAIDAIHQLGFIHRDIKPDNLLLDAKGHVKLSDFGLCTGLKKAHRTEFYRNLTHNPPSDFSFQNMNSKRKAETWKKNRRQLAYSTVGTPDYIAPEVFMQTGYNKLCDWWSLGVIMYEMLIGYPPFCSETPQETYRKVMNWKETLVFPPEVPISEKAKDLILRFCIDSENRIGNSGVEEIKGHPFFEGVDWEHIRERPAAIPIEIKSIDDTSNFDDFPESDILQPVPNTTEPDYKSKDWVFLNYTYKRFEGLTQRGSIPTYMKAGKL

[10] = molecular target: Serine/threonine-protein kinase 25 (Homo sapiens) (UniProt O00506); test: Inhibition of YSK1 in human PC3 cell lysates at 10 uM using desthiobiotin-tagged ATP probe AX9989 followed by trypsinization by LC/MS analysis; details: PC-3
Sequence of Serine/threonine-protein kinase 25 (Homo sapiens) (O00506 whole entry, looked up): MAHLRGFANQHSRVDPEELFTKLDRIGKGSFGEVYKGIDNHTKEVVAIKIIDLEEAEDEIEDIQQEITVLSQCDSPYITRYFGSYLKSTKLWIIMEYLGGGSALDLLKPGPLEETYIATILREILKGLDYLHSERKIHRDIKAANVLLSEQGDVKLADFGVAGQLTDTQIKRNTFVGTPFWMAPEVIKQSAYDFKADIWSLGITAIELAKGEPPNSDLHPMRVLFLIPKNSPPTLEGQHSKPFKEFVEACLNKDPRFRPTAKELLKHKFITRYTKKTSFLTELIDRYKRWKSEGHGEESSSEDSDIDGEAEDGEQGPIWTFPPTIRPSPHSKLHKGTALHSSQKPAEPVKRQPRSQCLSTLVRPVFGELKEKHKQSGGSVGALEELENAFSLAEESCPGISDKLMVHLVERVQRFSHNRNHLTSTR

[11] = molecular target: 3-phosphoinositide-dependent protein kinase 1 (Homo sapiens) (UniProt O15530); test: Inhibition of PDK1 in human PC3 cell lysates at 10 uM using desthiobiotin-tagged ATP probe AX9989 followed by trypsinization by LC/MS analysis; details: PC-3
Sequence of 3-phosphoinositide-dependent protein kinase 1 (Homo sapiens) (O15530 whole entry, looked up): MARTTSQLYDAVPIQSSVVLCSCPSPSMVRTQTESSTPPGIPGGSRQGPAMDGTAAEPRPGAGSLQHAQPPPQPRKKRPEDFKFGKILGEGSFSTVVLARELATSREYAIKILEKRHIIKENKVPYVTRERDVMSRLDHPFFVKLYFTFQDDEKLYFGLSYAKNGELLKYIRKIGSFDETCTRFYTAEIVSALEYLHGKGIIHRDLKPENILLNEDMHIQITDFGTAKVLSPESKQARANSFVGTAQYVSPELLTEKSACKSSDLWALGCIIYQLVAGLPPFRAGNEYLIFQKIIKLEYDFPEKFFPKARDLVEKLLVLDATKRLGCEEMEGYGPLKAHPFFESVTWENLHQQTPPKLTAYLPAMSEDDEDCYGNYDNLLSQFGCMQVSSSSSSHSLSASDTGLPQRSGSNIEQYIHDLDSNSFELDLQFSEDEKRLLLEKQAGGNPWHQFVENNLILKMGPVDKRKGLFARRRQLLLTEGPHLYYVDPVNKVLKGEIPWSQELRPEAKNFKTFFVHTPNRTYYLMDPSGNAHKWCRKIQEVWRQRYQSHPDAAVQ

Structure (SMILES): O=C(NC1(Cc2ccc(F)cc2)CC1)c1ccc2nc(N[C@H]3CC[C@H](O)CC3)c3nccn3c2c1
inhibition [1]: < 35%
inhibition [2]: < 35%
inhibition [3]: < 35%
inhibition [4]: < 35%
inhibition [5]: < 35%
inhibition [6]: < 35%
inhibition [7]: < 35%
inhibition [8]: < 35%
inhibition [9]: < 35%
inhibition [10]: < 35%
inhibition [11]: < 35%

Structure (SMILES): O=C(NC1(c2ccc(F)cc2)CC1)c1ccc2nc(N[C@H]3CC[C@H](O)CC3)c3nccn3c2c1
inhibition [1]: < 35%
inhibition [2]: < 35%
inhibition [3]: < 35%
inhibition [4]: < 35%
inhibition [5]: < 35%
inhibition [6]: < 35%
inhibition [7]: < 35%
inhibition [8]: < 35%
inhibition [9]: < 35%
inhibition [10]: < 35%
inhibition [11]: < 35%

Structure (SMILES): O=C(NC1(c2ccccc2)CCC1)c1ccc2nc(N[C@H]3CC[C@H](O)CC3)c3nccn3c2c1
inhibition [1]: < 35%
inhibition [2]: < 35%
inhibition [3]: < 35%
inhibition [4]: < 35%
inhibition [5]: < 35%
inhibition [6]: 49.8%
inhibition [7]: < 35%
inhibition [8]: < 35%
inhibition [9]: < 35%
inhibition [10]: < 35%
inhibition [11]: < 35%

Structure (SMILES): O=C(O)c1ccc2nc(N[C@H]3CC[C@H](O)CC3)c3nccn3c2c1
inhibition [1]: < 35%
inhibition [2]: < 35%
inhibition [3]: < 35%
inhibition [4]: 86.6%
inhibition [5]: < 35%
inhibition [6]: 97.9%
inhibition [7]: < 35%
inhibition [8]: < 35%
inhibition [9]: < 35%
inhibition [10]: < 35%
inhibition [11]: < 35%

Structure (SMILES): NC(=O)c1ccc2nc(N[C@H]3CC[C@H](O)CC3)c3nccn3c2c1
inhibition [1]: < 35%
inhibition [2]: < 35%
inhibition [3]: < 35%
inhibition [4]: < 35%
inhibition [5]: < 35%
inhibition [6]: 98.6%
inhibition [7]: < 35%
inhibition [8]: < 35%
inhibition [9]: < 35%
inhibition [10]: < 35%
inhibition [11]: < 35%

Now from value to compound, other results behind:

inhibition [1]: < 35%
inhibition [3]: < 35%
inhibition [4]: < 35%
inhibition [5]: < 35%
inhibition [6]: < 35%
inhibition [7]: < 35%
inhibition [8]: < 35%
inhibition [9]: < 35%
inhibition [10]: < 35%
inhibition [11]: < 35%
Structure (SMILES): CC(C)(NC(=O)c1ccc2nc(N[C@H]3CC[C@H](O)CC3)c3nccn3c2c1)c1ccccc1
inhibition [2]: < 35%

inhibition [1]: < 35%
inhibition [3]: < 35%
inhibition [4]: < 35%
inhibition [5]: < 35%
inhibition [6]: < 35%
inhibition [7]: < 35%
inhibition [8]: < 35%
inhibition [9]: < 35%
inhibition [10]: < 35%
inhibition [11]: < 35%
Structure (SMILES): O=C(N[C@H](CO)c1ccccc1)c1ccc2nc(N[C@H]3CC[C@H](O)CC3)c3nccn3c2c1
inhibition [2]: < 35%

inhibition [1]: < 35%
inhibition [3]: < 35%
inhibition [4]: < 35%
inhibition [5]: < 35%
inhibition [6]: < 35%
inhibition [7]: < 35%
inhibition [8]: < 35%
inhibition [9]: < 35%
inhibition [10]: < 35%
inhibition [11]: < 35%
Structure (SMILES): C[C@H](NC(=O)c1ccc2nc(N[C@H]3CC[C@H](O)CC3)c3nccn3c2c1)c1ccccc1
inhibition [2]: < 35%

inhibition [1]: < 35%
inhibition [3]: < 35%
inhibition [4]: < 35%
inhibition [5]: < 35%
inhibition [6]: 42%
inhibition [7]: < 35%
inhibition [8]: < 35%
inhibition [9]: < 35%
inhibition [10]: < 35%
inhibition [11]: < 35%
Structure (SMILES): C[C@@H](NC(=O)c1ccc2nc(N[C@H]3CC[C@H](O)CC3)c3nccn3c2c1)c1ccccc1
inhibition [2]: < 35%

inhibition [1]: < 35%
inhibition [3]: < 35%
inhibition [4]: < 35%
inhibition [5]: < 35%
inhibition [6]: < 35%
inhibition [7]: < 35%
inhibition [8]: < 35%
inhibition [9]: < 35%
inhibition [10]: < 35%
inhibition [11]: < 35%
Structure (SMILES): CC[C@@H](NC(=O)c1ccc2nc(N[C@H]3CC[C@H](O)CC3)c3nccn3c2c1)c1ccccc1
inhibition [2]: < 35%

inhibition [1]: < 35%
inhibition [3]: < 35%
inhibition [4]: < 35%
inhibition [5]: < 35%
inhibition [6]: < 35%
inhibition [7]: < 35%
inhibition [8]: < 35%
inhibition [9]: < 35%
inhibition [10]: < 35%
inhibition [11]: < 35%
Structure (SMILES): CCC[C@@H](NC(=O)c1ccc2nc(N[C@H]3CC[C@H](O)CC3)c3nccn3c2c1)c1ccccc1
inhibition [2]: < 35%

inhibition [1]: < 35%
inhibition [3]: < 35%
inhibition [4]: < 35%
inhibition [5]: < 35%
inhibition [6]: < 35%
inhibition [7]: < 35%
inhibition [8]: < 35%
inhibition [9]: < 35%
inhibition [10]: < 35%
inhibition [11]: < 35%
Structure (SMILES): O=C(NC1(c2ccccc2)CC1)c1ccc2nc(N[C@H]3CC[C@H](O)CC3)c3nccn3c2c1
inhibition [2]: < 35%
